Where a name gives a salt, the structure may show the parent alone.
How the values were obtained:
[1] = test system: human pulmonary artery endothelial cell (HPAEC); test: Nitric oxide production in HPAEC (Griess method); type: cell-based; conditions: 5-HT 10 μM for 30 min
Experimental: (§1) HPAEC purchased from ATCC were maintained in humidified incubator containing 5% CO2 at 37° C. HPAEC were cultured in F-12 supplemented with 10% fetal bovine serum. The culture medium was changed every 3 days and cells were subcultured until confluence. HPAEC were harvested with a solution of trypsin-EDTA (GIBCO BRL, NY, USA) while in a logarithmic phase of growth. HPAEC were used between passages 4-8.
Production of NO in HPAEC was determined using the Griess method (Niwano et al., 2003). The three step Greiss test converts nitrate (NO3^−) into nitrite (NO2^−) giving a total NO2^− concentration from a standard calibration curve. HPAEC were incubated with or without KMUP-1 (10 μM) for 24 h and then incubated with 5-HT (10 μmol/L) for 30 min. Media samples from HPAEC were taken and the NO concentration was determined. Six independent experiments were carried out and data are reported as the mean mean±SEM.

ERK1/2 = test: 5-HT-induced phosphorylation of ERK1/2 in PASMCs; type: cell-based, rat
Experimental: (§2) Wistar rats were anesthetized with an overdose of sodium pentobarbital (60 mg/kg) and the skin was sterilized with 75% alcohol. The chest was opened and the heart and lung were removed. The organs were rinsed several times in PBS. The pulmonary arterys (PAs) were segregated in a sterile manner. The outer sphere was peeled and the microtubule was snipped visually, and endothecia were shaved lightly 2-3 times in order to remove endothelial cells. The tunica media was prepared into scraps (1 mm^3) in DMEM (Dulbecco's modified Eagle's medium). PASMCs were cultured in DMEM containing 10% fetal bovine serum (5% CO2 at 37° C.). The culture medium was changed every 3 days and cells were subcultured until confluence. Primary cultures of 2-4 passages were used in the experiments. Cells were examined by immunofluorescence staining of α-actin to confirm the purity of PASMCs.
(§3) PASMCs were stimulated with 5-HT or not, as indicated. Cells were treated with KMUP-1 for 24 h before 5-HT stimulation. […]
(§4) The expression of RhoA/ROCK and phosphorylation of ERK1/2 and AKT kinase in PASMCs were assessed by incubating the PASMCs with 5-HT (10 μM) for 15 min (peak time for RhoA/ROCK, ERK1/2 and AKT phosphorylation) and 5-HTT for 10 min (peak time for 5-HTT) after KMUP-1 (1-100 μM) was added to the culture of PASMCs for 24 h.

eNOS = test: Expression of eNOS in HPAEC (Western blotting); type: cell-based, human
Experimental: as §1
PASMCs were stimulated with 5-HT or not, as indicated. Cells were treated with KMUP-1 for 24 h before 5-HT stimulation. Whole lysates were collected and resolved by SDS-PAGE as previously described (Liu et al., 2004). Primary antibodies were anti-β-actin at: 1:10,000 dilution and anti-RhoA, anti-ROCK, antiphospho-ERK1/2, anti-ERK1/2, anti-phospho-AKT, anti-AKT, anti-5HTT, anti-5-HT2B and anti-eNOS at 1:1000. All blots were incubated with antibodies at 4° C. overnight. After being washed, the appropriate secondary antibodies were added at a dilution of 1:1000 for 1 h at room temperature. After extensive washing, blots were developed with a Super Signal enhanced chemiluminescence kit (Biorad, CA, USA) and visualized on Kodak AR film.
To measure the expression of eNOS and 5-HT2B receptor in HPAEC after incubation with KMUP-1(1-100 μM) for 24 h, whole lysates were collected for Western blotting assay. The relative density was determined using NIH imaging software.

AKT = test: 5-HT-induced phosphorylation of AKT in PASMCs; type: cell-based, rat
Experimental: as §2, §3, §4

rat pulmonary artery = test: Isometric force of 5-HT-constricted pulmonary artery rings
Experimental: Wistar rats were euthanized with an overdose of sodium pentobarbital (60 mg/kg, i.p.) before open-chest surgery. During surgery, a thoracic retractor was used to help isolate the pulmonary artery. The chest was opened to dissect the second branches of the main pulmonary artery, which were cut into 2-3 mm rings, suspended under isometric conditions and connected to a force transducer as previously described (Ugo Basile, Model 7004, Comerio-VA, Italy) (Schach et al., 2007) to measure the constriction caused by 5-HT (10 μM). The pulmonary artery ring preparations were stretched to a basal tension of 1 g and allowed to equilibrate for 60-90 min. After equilibration, pulmonary artery rings were constricted with 5-HT (10 μM) to prime the tissues and check the functionality of the endothelium (at least 80% relaxation in response to acetylcholine 1 μM). Once the contractile response to each agonist reached a stable tension, KMUP-1 (0.1-100 μM) was cumulatively added to the organ bath in the presence of 5-HT (10 μM, pre-incubation time of 15 min).
The effect of KMUP-1 on NOS and 5-HT was also studied in vessels pre-incubated with the NOS inhibitor L-NAME (100 μM) 20 min before 5-HT administration. The percentage of relaxation was estimated using the following equation: relaxation (%)=(maximal contraction—relaxation level)/(maximal contraction-basal level)×100. Data was obtained from serotonin-induced maximal contractile responses in pulmonary artery.

[2] = test system: monocrotaline (MCT)-induced pulmonary artery hypertension rats; test: Mean pulmonary arterial pressure in MCT-induced PAH rats; type: in vivo, rat; conditions: MCT-treated rats, daily treatment for 21 days, n = 5
PASMCs [3] = test: 5-HT-induced PASMCs migration, wound assay model; type: cell-based, rat; conditions: 10-100 μM; 5-HT 10 μM 24 h
Experimental: The wound edge was viewed and photographed under a microscope (Nikon, Tokyo, Japan) before and after culture for 24 h in serum-free DMEM in the presence of 5HT (10 μM). The distance the cells migrated from the wound surface was then manually measured.

5-HTT = test: Pulmonary 5-HTT expression in MCT-treated rats (immunochemistry, Western blotting); type: in vivo, rat
Experimental: All experiments were performed in adult male Wistar rats (300 to 350 g) in accordance with institutional guidelines after approval by the ethical review committee. PAH development and pulmonary expression of 5-HTT were examined in rats after single injection of MCT (60 mg/kg i.p.). To assess the potential preventive effect of KMUP-1 on MCT-induced PAH and associated proliferation, we assigned rats at random to 2 groups of 8 animals which received KMUP-1 at 5 mg/kg/day p.o or 1 mg/kg/day i.p. All treatments were given once a day for 3 weeks after a single MCT injection (60 mg/kg i.p.) (Abe et al., 2004). On day 21, rats were anesthetized and pulmonary artery blood pressure (MPAP) was recorded as previously described (Chung et al., 2010). Lung tissues were dissected for Western blotting and immunohistochemistry.
For 5-HTT immunostaining, the lung slides were dewaxed in 100% xylene, and the sections were then rehydrated by successive immersion first in decreasing ethanol concentrations (100%, 90%, 80%, 50% and 30%) and then in water. Endogenous peroxidase activity was blocked using H2O2 in methanol (0.3% vol/vol) for 10 min. After three PBS washes, sections were pre-incubated in PBS supplemented with 3% (wt/vol) BSA for 30 min, then incubated overnight at 4° C. with goat polyclonal anti-5-HTT antibody (Abcam Biotechnology, Cambridge, UK) diluted to 1:1000 in 1×PBS, 0.02% BSA. […]

[4] = test system: pulmonary arterial smooth muscle cells (PASMCs); test: PASMCs [Ca2+]i measurement (Fura-2/AM); type: cell-based, rat; conditions: at 10 μM; 5-HT 10 μM
Experimental: as §2
The measurement of [Ca^2+]i in PASMCs was performed using a spectrofluorophotometer as previously reported (Wang et al., 2004). PASMCs, cultured for 2-4 passages and re-suspended by trypsin, were loaded with Fura-2/AM for the measurement of [Ca^2+]i changes in cells within the cuvette by spectrofluorophotometer (Shimadzu, RF-5301PC, Shimadzu, Japan). KMUP-1 was applied 5 min before application of 5-HT (10 μM).

5-HT2B receptor = target: T1, 5-HT2B receptor (Homo sapiens, UniProt P41595); test: Displacement of [3H]-LSD radioligand binding; conditions: from Table 1
T1 construct: full length clones of 5-HT2A, 5-HT2B and 5-HT2C receptor were prepared from CHO-K1 cells; expressed in transfected cells; host or cells: CHO-K1
Experimental: As described previously (Bonhaus et al., 1995), full length clones of 5-HT2A, 5-HT2B and 5-HT2C receptor were prepared from CHO-K1 cells. […] IC50 represents the concentration of competing ligand which displaces 50% of the specific binding of the radioligand. Ki values for competition curves were calculated using the Cheng-Prusoff equation (Cheng, 2001).

RhoA = test: 5-HT-induced RhoA translocation in PASMCs; type: cell-based, rat; conditions: 1-100 μM, 24 h; 5-HT 10 μM 15 min
Experimental: as §2, with “Cells were examined by immunofluorescence staining of α-actin to confirm the purity of PASMCs.” left out
Previous reports have shown that the active form of RhoA is translocated from the cytosol to the plasma membrane, where it activates Rho kinase (Gong et al., 1997)). […] To assess membrane trans-location of RhoA, protein in membrane and cytosolic fractions was determined by standard Western blot analysis using mouse monoclonal anti-RhoA antibody (1:1000 dilution, Santa Cruz Biotechnology) and a peroxidase-labeled anti-mouse immunoglobulin (Ig) G antibody (1:1000 dilution, Santa Cruz Biotechnology, CA, USA). The relative density of membrane to cytosolic RhoA was determined using NIH imaging software. […]

PASMCs [5] = test: 5-HT-induced PASMCs proliferation, MTT assay; type: cell-based, rat; conditions: KMUP-1 1-100 μM; 5-HT 10 μM 24 h
Experimental: as §2
PASMCs were seeded into 96-well plates at a density of 1×10^4 cells/well. […] At the end of this period, MTT (2 g/L) was added to each well, and incubation proceeded at 37° C. for 4 h. Thereafter, the medium was removed and the cells were solubilized in 150 μL DMSO. The optical density (OD) of each well was determined by enzyme-linked ELISA at 540 nm of wavelength.

[6] = pre-incubation 1-100 μM for 24 h

T1 sequence (P41595 whole entry): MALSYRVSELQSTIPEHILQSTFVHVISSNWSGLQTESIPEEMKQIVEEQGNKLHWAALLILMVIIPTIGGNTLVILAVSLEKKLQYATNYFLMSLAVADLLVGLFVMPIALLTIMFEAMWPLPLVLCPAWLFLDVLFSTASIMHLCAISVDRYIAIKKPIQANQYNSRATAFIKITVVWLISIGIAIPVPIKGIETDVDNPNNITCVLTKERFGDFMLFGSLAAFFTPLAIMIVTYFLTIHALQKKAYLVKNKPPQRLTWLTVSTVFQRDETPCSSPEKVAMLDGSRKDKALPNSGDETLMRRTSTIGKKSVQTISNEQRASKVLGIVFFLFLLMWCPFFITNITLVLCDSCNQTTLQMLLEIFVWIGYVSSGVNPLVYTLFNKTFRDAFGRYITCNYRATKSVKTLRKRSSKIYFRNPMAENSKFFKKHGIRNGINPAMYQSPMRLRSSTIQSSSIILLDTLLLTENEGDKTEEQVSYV

NCCc1c[nH]c2ccc(O)cc12 [5-HT, 5-hydroxytryptamine]
release of NO compared to the control group [1]: increased
increase of phosphorylation of ERK1/2 (ERK1/2; 5-HT 10 μM for 15 min): 2.3 fold
expression of eNOS compared to the control group (eNOS; 5-HT 10 μM for 30 min): increased
increase of phosphorylation of AKT (AKT; 5-HT 10 μM for 15 min): 2.3 fold

COC(=O)[C@@H](N)CCCNC(=N)N[N+](=O)[O-] [L-NAME, N^ω-nitro-L-arginine methyl ester, reference compound]
5-HT-induced constriction (rat pulmonary artery; L-NAME alone with 5-HT): enhanced

Cn1c(=O)c2c(ncn2CCN2CCN(c3ccccc3Cl)CC2)n(C)c1=O [KMUP-1 HCl]
mean pulmonary arterial pressure (MPAP), Table 2 [2]: 35.8 ± 3.2

Cn1c(=O)c2c(ncn2CCN2CCN(c3ccccc3Cl)CC2)n(C)c1=O [KMUP-1, 7-[2-[4-(2-chlorophenyl)piperazinyl]ethyl]-1,3-dimethyl-xanthine]
contractile response of pulmonary artery to 5-HT (10 μM) (rat pulmonary artery; 0.1-100 μM): inhibited
maximum response of pulmonary artery to 5-HT in the presence of L-NAME (rat pulmonary artery; KMUP-1 10-100 μM, L-NAME 100): reduced the maximum response
5-HT induced PASMCs migration (PASMCs [3]): inhibited
5-HT-induced phosphorylation of ERK1/2 (ERK1/2; [6]): dose-dependently inhibited
5-HTT expression in pulmonary artery, immunochemistry (5-HTT; 21 days after MCT injection, 5 mg/kg p.o. and 1 mg/kg i.p.): significantly decreased
5-HTT protein expression in lung tissue, Western blotting (5-HTT; MCT-treated rats): significantly reduced
inhibition of the sustained [Ca2+]i response to 5-HT [4]: 65%
affinity order of the sub-receptors (5-HT2B receptor): 5-HT2A>5-HT2B>5-HT2C
ligand specificity of the human 5-HT2B receptor versus 5-HT2A and 5-HT2C receptors (5-HT2B receptor): more selective
5-HT stimulated RhoA translocation (RhoA): inhibited
eNOS expression (eNOS; 1-100 μM for 24 h): dose-dependently increased
5-HT-induced phosphorylation of AKT (AKT; [6]): dose-dependently inhibited
PASMCs proliferation (PASMCs [5]): dose-dependently inhibited

From patent US20120251482A1, “USE FOR IMPROVING 5-HT FUNCTION AND ENOS EXPRESSION OF KMUPS AMINE SALTS” (KAOHSIUNG MEDICAL UNIVERSITY, priority 2011, published 2012)
